The values below are quoted from earlier work in patent US20140113009A1, “CONTROLLED APPLICATION OF CROSS-LINKING AGENT” (Avedro, Inc., priority 2012, published 2014).

Each structure is given as a SMILES string.

For series [1] the following is noted: compared with Riboflavin.
For series [2] the following is noted: combined with greater than 40 mM ascorbic acid; after 4 hours of light exposure.

`Cc1cc2nc3c(=O)[nH]c(=O)nc-3n(C[C@H](O)[C@H](O)[C@H](O)COP(=O)(O)O)c2cc1C` [FMN, Riboflavin-5-phosphate]: in series [1], the “solubility in water relative to Riboflavin” value is on record as “more soluble in water”.
Turning to `O=C1O[C@H]([C@@H](O)CO)C(O)=C1O` [ascorbic acid], the Riboflavin remains unreacted result in series [2] was “more than 90%”.
